Results taken from patent publication US20100317709A1, “SPHINGOSINE-1-PHOSPHATE (S1P) RECEPTOR COMPOUNDS” (UNIVERSITEIT LEIDEN, priority 2007, published 2010).

Tests used:
S1P3 receptor = S1P3 receptor (Homo sapiens, UniProt Q99500); experiment: cAMP accumulation assay at the S1P3 receptor (Lance cAMP 384 kit); type: cell-based; details: for EC50: N.D. = not defined because the potency and/or the efficacy were too low, read-out: pEC50 S1P3 (converted); for efficacy (α) S1P3: S1P = 1.00, N.D. = not defined because the potency and/or the efficacy were too low
Source text: (§1) A primary function of certain cell surface receptors is to activate second messenger systems upon binding of an agonist. The S1P1 receptor selectively binds to and activates Gi-proteins and activation of this receptor subtype thus results in the inhibition of cAMP production. The S1P2 receptor predominantly activates Gq-proteins finally resulting in increases in intracellular calcium. S1P3 receptor activation results in both, an inhibition of cAMP production and an increase in intracellular calcium, via the activation of Gi- and Gq-proteins
(§2) Accordingly, we performed measurements on cAMP accumulation (Lance cAMP 384 kit, Perkin Elmer, Zaventem, Belgium) and measurements on changes in intracellular calcium (for method see Jongsma et al., 2006) (8).

S1P1 receptor = S1P1 receptor (Homo sapiens, UniProt P21453); experiment: cAMP accumulation assay at the S1P1 receptor (Lance cAMP 384 kit); type: cell-based; details: for EC50: N.D. = not defined because the potency and/or the efficacy were too low, read-out: pEC50 S1P1 (converted); for efficacy (α) S1P1: S1P = 1.00, N.D. = not defined because the potency and/or the efficacy were too low
Source text: as §1, §2

Chain of S1P1 receptor (P21453 whole entry): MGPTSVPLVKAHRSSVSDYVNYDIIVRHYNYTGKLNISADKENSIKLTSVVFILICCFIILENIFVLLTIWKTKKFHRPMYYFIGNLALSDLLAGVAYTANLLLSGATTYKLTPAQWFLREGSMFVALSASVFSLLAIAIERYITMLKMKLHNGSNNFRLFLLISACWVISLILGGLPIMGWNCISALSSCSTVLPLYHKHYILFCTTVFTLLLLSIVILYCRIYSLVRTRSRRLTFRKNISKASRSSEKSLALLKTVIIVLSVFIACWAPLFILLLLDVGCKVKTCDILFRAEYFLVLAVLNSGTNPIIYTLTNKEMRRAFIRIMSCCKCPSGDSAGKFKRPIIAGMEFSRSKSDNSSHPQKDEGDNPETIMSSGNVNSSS
Chain of S1P3 receptor (Q99500 whole entry): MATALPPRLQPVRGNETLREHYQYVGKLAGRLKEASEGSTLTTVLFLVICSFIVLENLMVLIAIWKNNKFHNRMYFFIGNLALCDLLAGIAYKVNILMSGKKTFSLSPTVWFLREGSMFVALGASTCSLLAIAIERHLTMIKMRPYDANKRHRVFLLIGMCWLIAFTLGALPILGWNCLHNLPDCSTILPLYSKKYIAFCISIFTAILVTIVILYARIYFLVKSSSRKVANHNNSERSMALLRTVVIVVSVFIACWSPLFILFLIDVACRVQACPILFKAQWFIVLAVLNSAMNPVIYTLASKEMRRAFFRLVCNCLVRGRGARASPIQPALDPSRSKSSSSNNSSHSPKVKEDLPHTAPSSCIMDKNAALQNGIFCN

| EC50 (S1P3 receptor) | efficacy (α) S1P3 (S1P3 receptor) | melting point | EC50 (S1P1 receptor) | efficacy (α) S1P1 (S1P1 receptor) | Structure (SMILES) |
| --- | --- | --- | --- | --- | --- |
| > 10000 nM | +/−1 (n = 3) | 129 to 131 °C | – | – | CCc1c(C)sc(N)c1C(=O)c1ccccc1 [LUF5464, (2-Amino-4-ethyl-5-methyl-3-thienyl)(phenyl)methanone] |
| – | – | 100 to 101 °C | – | – | CCc1c(C)sc(N)c1C(=O)c1cccc(C(F)(F)F)c1 [LUF5468, (2-Amino-4-ethyl-5-methyl-3-thienyl)[3-(trifluoromethyl)phenyl]methanone] |
| – | – | 114 to 116 °C | – | – | Cc1sc(N)c(C(=O)c2cccc(Cl)c2)c1C [LUF5471, (2-Amino-4,5-dimethyl-3-thienyl)(3-chlorophenyl)methanone] |
| – | – | 99 to 102 °C | – | – | CCc1c(C)sc(N)c1C(=O)c1cccc(Cl)c1 [LUF5472, (2-Amino-4-ethyl-5-methyl-3-thienyl)(3-chlorophenyl)methanone] |
| 6760 nM | 0.37 | – | – | – | Nc1sc2c(c1C(=O)c1ccc(Cl)cc1)CCCC2 [LUF5480, (2-Amino-4,5,6,7-tetrahydrobenzo[b]thiophen-3-yl)(4-chlorophenyl)methanone] |
| – | – | 108 to 110 °C | – | – | CCc1c(C)sc(N)c1C(=O)c1ccc(Cl)cc1 [LUF5482, (2-Amino-4-ethyl-5-methyl-3-thienyl)(4-chlorophenyl)methanone] |
| – | – | 123 to 125 °C | – | – | Cc1sc(N)c(C(=O)c2ccc(Cl)cc2)c1C [LUF5487, (2-Amino-4,5-dimethyl-3-thienyl)(4-chlorophenyl)methanone] |
| – | – | 173 to 175 °C | – | – | Nc1sc(-c2ccccc2)cc1C(=O)c1ccc(Cl)cc1 [LUF5488, (2-Amino-5-phenyl-3-thienyl)(4-chlorophenyl)methanone] |
| 3090 nM | 0.96 | 155 to 156 °C | – | – | Cc1ccc(C(=O)c2c(N)sc3c2CCCC3)cc1 [LUF5527, (2-Amino-4,5,6,7-tetrahydrobenzo[b]thiophen-3-yl)(4-methylphenyl)methanone] |
| > 10000 nM | <0.5 (n = 2) | 150 to 152 °C | – | – | Nc1sc2c(c1C(=O)c1ccc(I)cc1)CCCC2 [LUF5528, (2-Amino-4,5,6,7-tetrahydrobenzo[b]thiophen-3-yl)(4-iodophenyl)methanone] |

Second part, the compound before the results:

| Structure (SMILES) | EC50 (S1P3 receptor) | efficacy (α) S1P3 (S1P3 receptor) | melting point | EC50 (S1P1 receptor) | efficacy (α) S1P1 (S1P1 receptor) |
| --- | --- | --- | --- | --- | --- |
| Nc1sc2c(c1C(=O)c1ccccc1)CCCC2 [LUF5465, (2-Amino-4,5,6,7-tetrahydrobenzo[b]thiophen-3-yl)(phenyl)methanone] | > 10000 nM | >0.5 | – | – | – |
| Nc1sc2c(c1C(=O)c1cccc(C(F)(F)F)c1)CCCC2 [LUF5469, (2-Amino-4,5,6,7-tetrahydrobenzo[b]thiophen-3-yl)[3-(trifluoromethyl)phenyl]methanone] | 1290 nM | 1.07 | 122 to 123 °C | – | – |
| Nc1sc2c(c1C(=O)c1cccc(Cl)c1)CCCC2 [LUF5473, (2-Amino-4,5,6,7-tetrahydrobenzo[b]thiophen-3-yl)(3-chlorophenyl)methanone] | 1860 nM | 1.07 | 114 to 115 °C | 1000 nM | 0.40 |
| Nc1sc2c(c1C(=O)c1ccc(Cl)c(Cl)c1)CCCC2 [LUF5484, (2-Amino-4,5,6,7-tetrahydrobenzo[b]thiophen-3-yl)(3,4-dichlorophenyl)methanone] | > 10000 nM | <0.5 (n = 2) | 152 to 154 °C | – | – |
| Nc1sc2c(c1C(=O)c1ccc(C(F)(F)F)cc1)CCCC2 [LUF5489, (2-Amino-4,5,6,7-tetrahydrobenzo[b]thiophen-3-yl)[4-(trifluoromethyl)phenyl]methanone] | > 10000 nM | – | 145 to 147 °C | – | – |
| Nc1sc2c(c1C(=O)c1ccc(Br)cc1)CCCC2 [LUF5490, (2-Amino-4,5,6,7-tetrahydrobenzo[b]thiophen-3-yl)(4-bromophenyl)methanone] | 1150 nM | 0.41 | 152 to 153 °C | – | – |
| COC(=O)c1ccc(C(=O)c2c(N)sc3c2CCCC3)cc1 [LUF5492, Methyl 4[(2-Amino-4,5,6,7-tetrahydrobenzo[b]thiophen-3-yl)-carbonyl]benzoate] | 933 nM | 0.25 | 159 to 160 °C | – | – |
| Nc1sc2c(c1C(=O)c1ccc(C(=O)O)cc1)CCCC2 [LUF5493, 4-[(2-Amino-4,5,6,7-tetrahydrobenzo[b]thiophen-3-yl)-carbonyl]benzoic acid] | – | – | 232 to 233 °C | – | – |
| Nc1sc(CN2C(=O)c3ccccc3C2=O)cc1C(=O)c1cccc(C(F)(F)F)c1 [LUF5496, 2-({5-Amino-4-[3-(trifluoromethyl)benzoyl]-2-thienyl}methyl)-1,3-isoindolinedione] | > 10000 nM | – | 199 to 200 °C | – | – |
| Nc1sc2c(c1C(=O)c1ccc([N+](=O)[O-])cc1)CCCC2 [LUF5526, (2-Amino-4,5,6,7-tetrahydrobenzo[b]thiophen-3-yl)(4-nitrophenyl)methanone] | – | – | 202 to 204 °C | – | – |
| Nc1sc2c(c1C(=O)c1ccccc1Cl)CCCC2 [LUF5532, (2-Amino-4,5,6,7-tetrahydrobenzo[b]thiophen-3-yl)(2-chlorophenyl)methanone] | 4170 nM | 0.71 | 145 to 147 °C | 4170 nM | 0.63 |
| Nc1sc2c(c1C(=O)c1cccc(I)c1)CCCC2 [LUF5533, (2-Amino-4,5,6,7-tetrahydrobenzo[b]thiophen-3-yl)(3-iodophenyl)methanone] | 1260 nM | 0.94 | 160 to 162 °C | 1380 nM | 0.46 |
| CCCCCCCCCCCCC/C=C/[C@@H](O)[C@@H](N)COP(=O)(O)O [S1P, sphingosine-1-phosphate] | 0.347 nM | 1.00 | – | 0.138 nM | 1.00 |
